Reference: paper PMC8700061, “Fragment-Sized and Bidentate (Immuno)Proteasome Inhibitors Derived from Cysteine and Threonine Targeting Warheads” (Cells, 2021)

Legend:
[1] = HPLC-based stability assay in PBS; assay type: physicochemical; settings: PBS pH 7.4
Procedure: (§1) GSH reactivity assay was performed as described by Petri et al.; 500 μM solution of compound (PBS buffer pH 7.4, 10% MeCN, 250 μL) with 200 μM solution of indoprofen as internal standard were added to 10 mM GSH solution (dissolved in PBS buffer, 250 μL) in a 1:1 ratio. The final concentration was 250 μM compound, 100 μM indoprofen, 5 mM GSH and 5% MeCN (500 μL). The final mixture was analyzed by HPLC after 0, 1, 2, 4, 8, 12, 24, 48, and 72 h. The degradation kinetics were also studied using the method described in [24], except that pure PBS buffer was used instead of GSH solution. In this experiment, the final concentration of the mixture was 250 μM fragment, 100 μM indoprofen and 5% MeCN. The area under the curve (AUC) values were determined by integrating the HPLC spectra and then corrected with the internal standard.

GSH = assay: HPLC-based GSH reactivity assay; assay type: physicochemical; settings: 5 mM glutathione (GSH) in PBS buffer; 250 µM compound, 5 mM GSH, PBS pH 7.4; read-out: Reactivity with GSH (HPLC-based assay), t1/2
Procedure: as §1, with “The final concentration was 250 μM compound, 100 μM indoprofen, 5 mM GSH and 5% MeCN (500 μL).” left out, “In this experiment, the final concentration of the mixture was 250 μM fragment, 100 μM indoprofen and 5% MeCN.” left out

Row | SMILES | Stability in Buffer (HPLC-based assay) [1] | half-life at 250 µM (GSH)
1 | CC(C)C[C@H](NC(=O)CCn1c(C#N)nc2ccccc21)B1O[C@@H]2C[C@@H]3C[C@@H](C3(C)C)[C@]2(C)O1 [Compound 30] | stable ^b,c | –
2 | CC(C)C[C@H](NC(=O)CCn1c(C#N)nc2cccc(Cl)c21)B1O[C@@H]2C[C@@H]3C[C@@H](C3(C)C)[C@]2(C)O1 [Compound 38] | stable ^b,c | –
3 | COc1cccc2oc(C#N)nc12 [Compound 6] | stable ^c,d | < 3 min
4 | CC(C)C[C@H](NC(=O)CCCn1c(C#N)nc2ccccc21)B1O[C@@H]2C[C@@H]3C[C@@H](C3(C)C)[C@]2(C)O1 [Compound 31] | stable ^b,c | –
5 | CC(C)C[C@H](NC(=O)Cc1ccc2oc(C#N)nc2c1)B1O[C@@H]2C[C@@H]3C[C@@H](C3(C)C)[C@]2(C)O1 [Compound 39] | stable ^b,c | 3 to 60 min
